Experimental data: PMC3242765, “Inhibitors of Alphavirus Entry and Replication Identified with a Stable Chikungunya Replicon Cell Line and Virus-Based Assays” (PLoS ONE, 2011)
Where “and” joins values, the source holds several entries; their conditions need not be identical. Identical values can stand only once.

Legend:
CHIKV replicon = assay: microbe, parasite or virus in culture; format: cell-based, Chikungunya virus (CHIKV)

## CCS(=O)(=O)CCn1c([N+](=O)[O-])cnc1C [Tinidazole]
CHIKV replicon
  CHIKV replicon % left: 100.5%
SFV-Rluc
  SFV replication % left (surviving fraction, remaining percentage of SFV replication): 104.1%

## Cl.c1ccc(CC2=NCCN2)cc1 [Tolazoline, hydrochloride]
CHIKV replicon
  CHIKV replicon % left: 102.1%
SFV-Rluc
  SFV replication % left (surviving fraction, remaining percentage of SFV replication): 76.0%

## CCCCNC(=O)NS(=O)(=O)c1ccc(C)cc1 [Tolbutamide]
CHIKV replicon
  CHIKV replicon % left: 100.9%
SFV-Rluc
  SFV replication % left (surviving fraction, remaining percentage of SFV replication): 80.2%

## Cc1c(Cl)cccc1Nc1ccccc1C(=O)O [Tolfenamic acid]
CHIKV replicon
  CHIKV replicon % left: 108.2%
SFV-Rluc
  SFV replication % left (surviving fraction, remaining percentage of SFV replication): 80.1%

## N[C@@H]1C[C@H]1c1ccccc1.N[C@H]1C[C@@H]1c1ccccc1.O=S(=O)(O)O [Tranylcypromine sulfate]
CHIKV replicon
  CHIKV replicon % left: 94.4%
SFV-Rluc
  SFV replication % left (surviving fraction, remaining percentage of SFV replication): 94.8%

## Nc1nc(N)c2nc(-c3ccccc3)c(N)nc2n1 [Triamterene]
CHIKV replicon
  CHIKV replicon % left: 71.2%
SFV-Rluc
  SFV replication % left (surviving fraction, remaining percentage of SFV replication): 93.0%

## Cc1nnc2n1-c1ccc(Cl)cc1C(c1ccccc1Cl)=NC2 [Triazolam]
CHIKV replicon
  CHIKV replicon % left: 40.1%
SFV-Rluc
  SFV replication % left (surviving fraction, remaining percentage of SFV replication): 76.5%

## CC(CN(C)C)CN1c2ccccc2Sc2ccccc21.CC(CN(C)C)CN1c2ccccc2Sc2ccccc21.O=C(O)C(O)C(O)C(=O)O (centres unmarked) [Trimeprazine tartrate]
CHIKV replicon
  CHIKV replicon % left: 100.5%
SFV-Rluc
  SFV replication % left (surviving fraction, remaining percentage of SFV replication): 120.4%

## O=c1ccc2ccc(O)cc2o1 [Umbelliferone]
CHIKV replicon
  CHIKV replicon % left: 106.5% and 100.7%
SFV-Rluc
  SFV replication % left (surviving fraction, remaining percentage of SFV replication): 93.1% and 78.4%

## COc1cc(C(=O)O)ccc1O [Vanillic acid]
CHIKV replicon
  CHIKV replicon % left: 44.3%
SFV-Rluc
  SFV replication % left (surviving fraction, remaining percentage of SFV replication): 53.4%

## COc1cc(C=O)ccc1O [Vanillin]
CHIKV replicon
  CHIKV replicon % left: 71.7%
SFV-Rluc
  SFV replication % left (surviving fraction, remaining percentage of SFV replication): 47.9%

## COc1c2occc2cc2ccc(=O)oc12 [Xanthotoxin]
CHIKV replicon
  CHIKV replicon % left: 95.4%
SFV-Rluc
  SFV replication % left (surviving fraction, remaining percentage of SFV replication): 86.7%

## Cc1cc(C(C)(C)C)cc(C)c1CC1=NCCN1 [Xylometazoline]
CHIKV replicon
  CHIKV replicon % left: 78.2%
SFV-Rluc
  SFV replication % left (surviving fraction, remaining percentage of SFV replication): 94.2%

## CCCOC(=O)c1cc(O)c(O)c(O)c1 [n-Propyl gallate]
CHIKV replicon
  CHIKV replicon % left: 39.4%
SFV-Rluc
  SFV replication % left (surviving fraction, remaining percentage of SFV replication): 33.6%

## O=C(O)/C=C/c1ccccc1O [o-Coumaric acid]
CHIKV replicon
  CHIKV replicon % left: 98.6%
SFV-Rluc
  SFV replication % left (surviving fraction, remaining percentage of SFV replication): 77.6%

## Nc1ccc(C(=O)O)cc1 [p-Aminobenzoic acid]
CHIKV replicon
  CHIKV replicon % left: 105.4%
SFV-Rluc
  SFV replication % left (surviving fraction, remaining percentage of SFV replication): 56.5%

## CCCCNc1ccc(C(=O)OCCN(C)C)cc1 [p-Butylaminobenzoyldimethylaminoethanol]
CHIKV replicon
  CHIKV replicon % left: 77.1%
SFV-Rluc
  SFV replication % left (surviving fraction, remaining percentage of SFV replication): 45.4%

## CN[C@H](C)[C@@H](O)c1ccc(O)cc1 [p-Hydroxyephedrine]
CHIKV replicon
  CHIKV replicon % left: 100.6%
SFV-Rluc
  SFV replication % left (surviving fraction, remaining percentage of SFV replication): 94.4%

## (-)-Epicatechin gallate
CHIKV replicon
  CHIKV replicon % left: 100.5%
SFV-Rluc
  SFV replication % left (surviving fraction, remaining percentage of SFV replication): 94.8%

## Benzalkonium chloride
CHIKV replicon
  CHIKV replicon % left: -0.5%
SFV-Rluc
  SFV replication % left (surviving fraction, remaining percentage of SFV replication): 0.0294%

## Saccharin sodium
CHIKV replicon
  CHIKV replicon % left: 81.5%
SFV-Rluc
  SFV replication % left (surviving fraction, remaining percentage of SFV replication): 105.0%

## Tannic acid
CHIKV replicon
  CHIKV replicon % left: 82.0%
SFV-Rluc
  SFV replication % left (surviving fraction, remaining percentage of SFV replication): 41.8%
